Data on six compounds can be found in patent US9999620B2, “CaMKK-β as a target for treating cancer” (Duke University, priority 2010, dated 2018).

The subject of one test is circulating tumor cells. To be noted: patients having a castration-resistant type cancer; cited from earlier work.
The subject of a further test is CaMKKβ mRNA. In words: qPCR of CaMKKβ mRNA in prostate cancer cells. In kind it is cell-based, human. The following applies: for CaMKKβ mRNA levels: R1881 0.1, 1, 10 nM, 24 h. The procedure:
(§1) FIG. 1. Androgens increase CaMKKβ levels in an AR-dependent manner. LNCaP or VCaP cells were treated for 24 h with vehicle or increasing concentrations of the synthetic androgen R1881 (A—0.1, 1, and 10 nM; B—0.01, 0.1, 1, and 10 nM). A, after treatment, cells were lysed, and RNA was isolated and reversed transcribed. The expression of CaMKKβ was assessed using qPCR. B, after treatment, cells were subjected to western blot analysis and subsequent densitometry (top). CaMKKβ protein levels were normalized to GAPDH loading control. A and B, results are expressed as fold induction over vehicle-treated cells+SE (n=3). *, significant changes from vehicle-treated cells. C, LNCaP cells were transiently transfected with mock or Stealth siRNAs targeting a negative control (siLacZ) or CaMKKβ (#1-3). Two days later, cells were treated for 24 h+/−10 nM R1881. Whole-cell extracts were subjected to western blot analysis and densitometry (top) as described in B. *, significant changes from mock-transfected cells. D, LNCaP cells were transfected as described in C with mock or Stealth siRNAs targeting LacZ or AR and treated for 24 h. The expression of CaMKKβ was assessed as in A using qPCR.
FIG. 9. Identification of the ARE that regulates CaMKKβ expression. A, LNCaP cells were pretreated for 1 h with vehicle or 1 mg/mL cycloheximide followed by vehicle or 10 nM R1881 for 24 h. CaMKKβ or CXCR4 mRNA levels were quantified using qPCR. Results are expressed as fold induction over vehicle (no R1881)-treated cells±SE (n=3). *, significant changes from vehicle-treated cells. B, LNCaP cells were treated with vehicle (V) or 10 nM R1881 for 1 or 4 h. Cross-linked chromatin was immunoprecipitated with indicated antibodies. […]
(§2) RNA isolation, cDNA preparation, and quantitative and standard reverse transcription (RT)-PCR. RNA isolation, cDNA preparation and quantitative RT-PCR (qPCR) were performed as previously described using 36B4 as a control (12). […]
(In general: Real-time PCR tracks product formation cycle by cycle.)

In another test the test system is CaMKKβ protein. In words: Western blot of CaMKKβ protein in prostate cancer cells. The class given is cell-based, human. The following applies: R1881 0.01, 0.1, 1, 10 nM, 24 h. How it is done:
as §1
(§3) Western blot analysis. […] For each sample, protein levels were determined by densitometry using the ImageJ software (NIH) and normalizing to indicated controls.
On the technique in general: Immunoblotting shows a protein as a band on a membrane.

Test [1] has as its system AR binding region ~2.3 kb upstream of the CaMKKβ transcriptional start site. In words: Chromatin immunoprecipitation of AR at the CaMKKβ upstream region. The class given is cell-based, human. The following applies: LNCaP; 10 nM R1881 for 1 or 4 h. How it is done:
(§4) FIG. 9. Identification of the ARE that regulates CaMKKβ expression. A, LNCaP cells were pretreated for 1 h with vehicle or 1 mg/mL cycloheximide followed by vehicle or 10 nM R1881 for 24 h. CaMKKβ or CXCR4 mRNA levels were quantified using qPCR. Results are expressed as fold induction over vehicle (no R1881)-treated cells±SE (n=3). *, significant changes from vehicle-treated cells. B, LNCaP cells were treated with vehicle (V) or 10 nM R1881 for 1 or 4 h. Cross-linked chromatin was immunoprecipitated with indicated antibodies. The precipitated DNA was amplified using primers spanning a region identified using ChIP on Chip data as a potential AR-binding site (indicated in top schematic) or a distal upstream region (negative control). The results are presented as percent input±SE (n=3). *, significant changes from IgG controls. C, various enhancer luciferase reporter constructs (depicted in top model) were transfected into LNCaP cells and treated overnight+/−10 nM R1881. After treatment, cells were harvested and assayed for luciferase activity. Luciferase values were normalized to β-galactosidase control. Data are the mean relative light units (RLUs)+SEM for one representative experiment performed in triplicate (n=3). *, significant changes from vehicle-treated cells. […]

The test system of the next test is CXCR4 mRNA. In words: qPCR of CXCR4 mRNA in LNCaP cells. The following applies: 1 h 1 mg/mL cycloheximide, then 10 nM R1881 24 h. The class given is cell-based, human. The procedure: as §4, with “control.” for “control. Data are the mean relative light units (RLUs)+SEM for one representative experiment performed in triplicate (n=3). *, significant changes from vehicle-treated cells.”
as §2

The next test concerns distant metastases. The following applies: prostate cancer patients, clinical trials; cited from earlier work.
The test system of a further test is LNCaP cells. In words: Boyden dual chamber migration assay. The class given is cell-based, human. The procedure:
FIG. 7. CaMKKβ activity in the androgen-mediated migration and invasion of prostate cancer cells. A, LNCaP cells were plated in 96-well plates and grown for 3 d. […] On d 10, cells were lysed and the relative number of cells was measured with the fluorescent DNA binding dye FluoReporter Blue. Each sample was performed in triplicate, and results from a representative experiment are shown. […] Cells were then dissociated and reseeded into the top chamber for a Boyden migration or Matrigel extracellular matrix invasion assay. Fresh medium with the corresponding treatments was added to the top and bottom chambers while either no chemoattractant or 5% FBS (serum) was added to the bottom chamber. After 16 h, migrated cells were fixed, stained and counted in three different microscopic fields and added together. […] C top, LNCaP cells were transfected with indicated siRNAs. […] D right, LNCaP cells stably expressing either GAL4 (control) or CaMKKβ were subjected to a migration assay as described in B using +/-5% FBS as chemoattractant. The results are expressed as mean+SE (n=3). *, significant changes from LNCaP-GAL4 cells. D left, western blot confirming CaMKKβ […]expression. FIG. 11. Androgen-mediated migration occurs through a CaMKKβ-AMPK-dependent pathway. […] Results are expressed as fold induction/phosphorylation over double vehicle-treated cells+SE (n=3). *, significant changes from vehicle-treated cells. […] Results are expressed as fold induction/phosphorylation over LNCaP-GAL4 vehicle-treated cells+SE (n=3). *, significant changes from LNCaP-GAL4 vehicle-treated cells. […] The results are expressed as mean±SE (n=2). *, P<0.05 indicates significant changes from double vehicle-treated cells. ^#, P<0.05 indicates significant decreases from vehicle (no compound C)-treated cells. […] ACC is a direct target of AMPK and thus, was used as a readout of AMPK catalytic activity. […] Results are expressed as fold induction/phosphorylation over double vehicle-treated cells+SE (n=2). *, P<0.05 indicates significant changes from double vehicle-treated cells. […]

In a further test the test system is AMPK. In words: Western blot of phospho-ACC (readout of AMPK catalytic activity). The class given is cell-based, human. The following applies: LNCaP; 1 h 1, 10 or 40 mM compound C, overnight +/-10 nM R1881. The procedure:
FIG. 13. AMPK and androgen-mediated prostate cancer cell migration. A, LNCaP cells were pretreated for 1 h with vehicle or increasing concentrations of compound C (10 or 40 mM) prior to overnight treatment+/−10 nM R1881 or 1 mM AICAR. Cells were then subjected to a migration assay as described in FIG. 7. The results are expressed as mean±SE (n=2). *, P<0.05 indicates significant changes from double vehicle-treated cells. ^#, P<0.05 indicates significant decreases from vehicle (no compound C)-treated cells. B, LNCaP cells were pretreated for 1 h with vehicle, 1, 10 or 40 mM compound C prior to overnight treatment+/−10 nM R1881. Cell lysates were then subjected to western blot analysis and subsequent densitometry (top). ACC is a direct target of AMPK and thus, was used as a readout of AMPK catalytic activity. Phospho-ACC (p-ACC) levels were normalized to total ACC. Results are expressed as fold induction/phosphorylation over double vehicle-treated cells+SE (n=2). *, P<0.05 indicates significant changes from double vehicle-treated cells. […]
as §3

`CNC(=O)c1ccc(N2C(=S)N(c3ccc(C#N)c(C(F)(F)F)c3)C(=O)C2(C)C)cc1F` [MDV3100]: the “number of circulating tumor cells in patients” value in the test on circulating tumor cells is reported as “decreases the number of circulating tumor cells in approximately half of the treated patients”.
Consider `C[C@]1(O)CC[C@H]2[C@@H]3CCC4=CC(=O)CCC4=C3C=C[C@@]21C` [R1881, Methyltrienolone], for which the “CaMKKβ mRNA levels” value in the test with CaMKKβ mRNA (LNCaP) and in the test with CaMKKβ mRNA (VCaP) was “increased in a dose-dependent manner” in each case. For the same compound, the CaMKKβ protein levels result with CaMKKβ protein (LNCaP) and with CaMKKβ protein (VCaP) was “dose-dependent increase” each time. Moreover, in test [1], the “AR recruitment to the CaMKKβ upstream region” value is reported as “recruited to this region of the promoter within one hour”.
Regarding `C[C@@H]1C[C@@H]([C@H](O)CC2CC(=O)NC(=O)C2)C(=O)[C@@H](C)C1` [cycloheximide, Cycloheximide], the “R1881-mediated increase in CaMKKβ mRNA levels” value in the test on CaMKKβ mRNA (LNCaP, 1 h 1 mg/mL cycloheximide, then 10 nM R1881 24 h) is “did not block”. Further, the “expression of secondary androgen target genes (ex. CXCR4)” value in the test with CXCR4 mRNA is reported as “inhibits the expression of secondary androgen target genes”.
Take `CC(C)C[C@H](NC(=O)[C@@H](COC(C)(C)C)NC(=O)[C@H](Cc1ccc(O)cc1)NC(=O)[C@H](CO)NC(=O)[C@H](Cc1c[nH]c2ccccc12)NC(=O)[C@H](Cc1cnc[nH]1)NC(=O)[C@@H]1CCC(=O)N1)C(=O)N[C@@H](CCCNC(=N)N)C(=O)N1CCC[C@H]1C(=O)NNC(N)=O` [goserelin]: in the test with distant metastases, the “incidences of distant metastases” value is given as “reduced incidences of distant metastases”.
`NC(=O)c1ncn([C@@H]2O[C@H](CO)[C@@H](O)[C@H]2O)c1N` [AICAR, 5-aminoimidazole-4-carboxamide 1-b-D-ribo-furanoside]: in the test on LNCaP cells (overnight 1 mM AICAR, no androgen), the “cell migration, treatment alone” value is reported as “sufficient to increase cell migration”.
As to `c1cc(-c2cnn3cc(-c4ccc(OCCN5CCCCC5)cc4)cnc23)ccn1` [compound C], the androgen-mediated cell migration entry in the test on LNCaP cells (1 h pretreatment with compound C (10 or 40 mM), overnight 10 nM R1881) is given as “completely abolished androgen-mediated cell migration”. Besides, the “AMPK kinase activity (phospho-ACC levels)” value in the test on AMPK was “inhibited its kinase activity”.
